Data: patent US20230391714A1, “INHIBITORS OF THE INTERACTION BETWEEN TRIP8B AND HCN CHANNELS AND USES THEREOF FOR TREATING NEUROLOGICAL DISEASES AND DISORDERS” (Northwestern University, priority 2022, published 2023)
Like-named read-outs stand apart in the source and are kept apart here.

Columns and labels:
[1] = DMSO needed in PBS to see proton signals in 1H-NMR (aqueous solubility); type: physicochemical; conditions: PBS (pH 7.4)
From the text: (§1) Solubility and Mouse Microsomal Stability. […] In order to improve the aqueous solubility to support additional biochemical assays we made and characterized several salt forms. The formic acid (FA) salt was recovered after reverse-phase preparative HPLC while using formic acid as a modifier. […] On stirring the free amine in 4M HCl in dioxane, the compound was converted to the HCl salt as a white solid (Scheme 1). […] As a result, the HCl-salt of NUCC-0200590 was used for biophysical assays. The inhibitor was also screened for in vitro stability towards mouse liver microsomes to evaluate its potential metabolism and suitability for future in vivo experiments. The microsomal stability was measured after a 60-minute incubation at 37° C. with mouse liver microsomes. The compound was almost completely consumed by mouse liver microsomes after a 60-minute incubation as only 3.7% of the parent compound remained.

[2] = Thermodynamic solubility in PBS; type: physicochemical; conditions: PBS at pH 7.4, room temperature, stirring for 16 hours; for solubility thermodynamic at 16 h: aqueous buffer, thermodynamic from solid
From the text: as §1

TRIP8b and HCN1 = TRIP8b and HCN1 (Homo sapiens (Human), UniProt Q8IYB4); assay: NanoBiT live cell protein-protein interaction assay; type: cell-based; conditions: HEK293T cells, 30 min incubation
Description: NanoBiT live cell protein-protein interaction assay. HEK293T cells (obtained freshly from ATCC) were plated in DMEM (Thermo Fisher, #11965-092) with 10% FBS (Thermo Fisher, #16000-044) and Pen/Strep (Thermo Fisher #15140-122) at 1 million cells per well in 6-well tissue culture treated plates. The next day, cells were co-transfected using Lipofectamine 3000 with plasmids encoding the small Nanoluciferase fragment (SmBiT) fused to the N-terminus of full-length HCN1 (SmBiT-HCN1), and the large Nanoluciferase fragment (LgBiT) fused to the N-terminus of TRIP8b(1a-4) (LgBiT-TRIP8b). The plasmids were constructed by cloning into backbone vectors from the Promega NanoBiT MCS cloning kit #N2014. As a control for specific inhibition, other cells were co-transfected with SmBiT-PRKACA and LgBiT-PRKAR2A positive control plasmids from the kit. 24 hours post-transfection, the cells were trypsinized with TrypLE (Thermo Fisher, #12604-013), washed and suspended in phenol red-free Opti-MEM I (Thermo Fisher, #11058-021), and 25,000 cells per well were plated in white 384-well tissue culture-treated plates (Greiner #781080). […] Luminescence was generated by adding Nano-Glo live cell substrate (Promega, #N2011) and incubating for 30 minutes at 37° C. prior to detecting on a luminescent reader (Biotek Neo2).

[3] = test system: HCN channels in CA1 pyramidal neurons; assay: Slice electrophysiology in CA1 pyramidal neurons; type: cell-based, mice; conditions: 15 μM
Description: Slice Electrophysiology. Whole cell recordings from CA1 pyramidal neurons were performed using an electrophysiology rig described previously (Zhou et al., 2013; 2015). 300 micron sagittal sections were made from male and female mice with 5 μM CGP52432, 2 μM SR-95531, and 10 μM MK-801 to block GABAB, GABAA, and NMDAR. ACSF was composed of 125 mM NaCl, 2.5 mM KCl, 25 mM NaHCO3, 1.25 mM Na2PO4, 1 mM MgCl2, 2 mM CaCl2), and 25 mM glucose while the internal solution was 115 mM K-gluconate, 20 mM KCl, 10 mM Na2Phosphocreatinine, 2 mM MgATP, and 0.3 mM NaGTP. NUCC-0200590 was incubated in the slice chamber in a subset of experiments as described in the text. Current clamp recordings were performed at a holding potential of −70 mV.

HEK293T cells = assay: Cell viability assay (alamar Blue); type: cell-based; conditions: 0-50 μM, 24 hours
Description: Cell Viability Assays. HEK293T Cells (ATCC, Manassas, Virginia) were maintained as previously described (Lyman et al., 2017b). These cells were plated at 30-50% confluence and incubated for 24 hours with the concentration of NUCC-0200590 specified in the main text. The cells were then incubated with alamar Blue assay reagent per the Manufacturer's instructions (ThermoFisher, Rockford, IL) prior to reading the plates on a plate reader.

TRIP8b-HCN1c40 = TRIP8b-HCN1c40 (Homo sapiens (Human), UniProt Q8IYB4); assay: TRIP8b-HCN1c40 AlphaScreen assay; type: binding
Description: AlphaScreen Assay. 20 nM ofGST-tagged HCNlc40 protein (corresponding to the C terminal 40 amino acids of HCN1) was incubated with 200 nM of His-tagged TRIP8b(241-602) and varying concentrations of the test compound as described in our prior report (Han et al., 2015). After a 3 h incubation, anti-GST AlphaScreen acceptor beads were added for 1.5 h followed by AlphaScreen nickel chelate donor beads for 1.5 h. AlphaScreen signal was quantified using a PerkinElmer (Waltham, MA) EnSpire multimode plate reader.

[4] = Mouse liver microsomal stability; type: in vitro ADME; conditions: 60-minute incubation at 37° C. with mouse liver microsomes
From the text: as §1

[5] = activity ranges, read-out: TRIP8b-HCN1c40 Alphascreen IC50 activity
[6] = read-out: TRIP8b-HCN1c40 Alphascreen IC50

Chain of TRIP8b-HCN1c40 (Q8IYB4 265-626): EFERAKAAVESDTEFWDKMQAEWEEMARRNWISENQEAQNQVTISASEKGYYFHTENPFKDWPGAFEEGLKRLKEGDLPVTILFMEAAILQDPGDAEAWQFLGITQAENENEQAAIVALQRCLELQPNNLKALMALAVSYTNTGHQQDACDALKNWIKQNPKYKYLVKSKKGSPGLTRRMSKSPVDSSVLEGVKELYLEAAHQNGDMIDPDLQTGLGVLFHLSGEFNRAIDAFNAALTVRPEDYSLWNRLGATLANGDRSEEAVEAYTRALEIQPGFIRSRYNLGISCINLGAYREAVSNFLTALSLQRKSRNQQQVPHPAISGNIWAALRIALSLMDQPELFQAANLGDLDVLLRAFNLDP
Chain of TRIP8b and HCN1 (Q8IYB4 other isoform, or with tags, fused parts or gaps, species assumed): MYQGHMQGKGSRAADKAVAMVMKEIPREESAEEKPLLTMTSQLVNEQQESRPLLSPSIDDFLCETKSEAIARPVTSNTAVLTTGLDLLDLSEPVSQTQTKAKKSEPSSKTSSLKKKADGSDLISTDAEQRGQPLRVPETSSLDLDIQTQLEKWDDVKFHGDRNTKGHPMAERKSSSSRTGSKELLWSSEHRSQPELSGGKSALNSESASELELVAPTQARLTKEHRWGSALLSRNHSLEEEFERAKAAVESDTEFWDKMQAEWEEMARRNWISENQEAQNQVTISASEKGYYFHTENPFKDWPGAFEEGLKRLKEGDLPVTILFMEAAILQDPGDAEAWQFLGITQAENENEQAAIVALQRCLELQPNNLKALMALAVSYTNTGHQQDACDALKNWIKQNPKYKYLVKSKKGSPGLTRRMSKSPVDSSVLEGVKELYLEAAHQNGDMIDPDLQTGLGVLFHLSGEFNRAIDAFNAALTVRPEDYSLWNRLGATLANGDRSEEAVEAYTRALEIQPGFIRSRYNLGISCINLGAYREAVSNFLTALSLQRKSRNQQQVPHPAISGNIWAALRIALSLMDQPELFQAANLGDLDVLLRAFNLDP

Compound	IC50 (TRIP8b-HCN1c40; [5]) [nM]	IC50 (TRIP8b-HCN1c40; [6]) [nM]	other results
CN1CCN(Cc2cc(-c3ccc(F)cc3)ccc2OCC(=O)NCc2ccc(Cl)cc2)CC1.O=CO [NUCC-0200590 FA salt, N-(4-chlorobenzyl)-2-((4′-fluoro-3-((4-methylpiperazin-1-yl)methyl)-[1,1′-biphenyl]-4-yl)oxy)acetamide formate]			DMSO in PBS required to see proton signals in 1H-NMR [1]: 15%; solubility thermodynamic at 16 h [2]: 45 µM
CN1CCN(Cc2cc(-c3ccc(F)cc3)ccc2OCC(=O)NCc2ccc(Cl)cc2)CC1.Cl [NUCC-0200590 HCl salt, N-(4-chlorobenzyl)-2-((4′-fluoro-3-((4-methylpiperazin-1-yl)methyl)-[1,1′-biphenyl]-4-yl)oxy)acetamide hydrochloride]			solubility thermodynamic at 16 h [2]: 252 µM; disruption of TRIP8b-HCN1 interaction (NanoBiT luminescence) (TRIP8b and HCN1): disrupts the interaction between fragments of TRIP8b and HCN1 in live cells
CN1CCN(Cc2cc(-c3ccc(F)cc3)ccc2OCC(=O)NCc2ccc(Cl)cc2)CC1 [NUCC-0200590, N-(4-chlorobenzyl)-2-((4′-fluoro-3-((4-methylpiperazin-1-yl)methyl)-[1,1′-biphenyl]-4-yl)oxy)acetamide]	5000 to 10000	5400	thermodynamic solubility [2]: completely insoluble; sag ratio ([3]; Trip8b+/+ mice): 1.14±0.01; sag ratio ([3]; Trip8b−/− mice): 1.05±0.02; viability as percentage of 0 μM control (HEK293T cells): main effect of concentration; IC50 (TRIP8b-HCN1c40; most potent hit compound of in silico screen, read-out: IC50 value in the AlphaScreen assay): 19900 ± 900 nM; parent compound remained [4]: 3.7%
CC(C)(C)c1ccc(-c2ccc(OCC(=O)NCc3ccc(Cl)cc3)c(CN3CCNCC3)c2)cc1 [NUCC-0201615]	5000 to 10000	6300	
CN1CCN(Cc2cc(-c3cc(C(F)(F)F)cnc3Cl)ccc2OCC(=O)Nc2ccc(Cl)c(Cl)c2)CC1 [NUCC-0202007]	2000 to 5000	4600	
CN1CCN(Cc2cc(-c3ccncc3)ccc2OCC(=O)Nc2ccc(Cl)c(Cl)c2)CC1 [NUCC-0202006]	5000 to 10000	5300	
CN1CCN(Cc2cc(-c3ccc(Cl)c(Cl)c3)ccc2OCC(=O)Nc2ccc3ncsc3c2)CC1 [NUCC-0202014]	< 1000	810	
CN1CCN(Cc2ccc(-c3ccc(Cl)c(Cl)c3)cc2OCC(=O)NCc2ccc(Cl)cc2)CC1 [NUCC-0202008]	1000 to 2000	1200	
CN1CCN(Cc2cc(-c3ccc(Cl)c(Cl)c3)ccc2OCC(=O)N2Cc3ccc(Cl)cc3C2)CC1 [NUCC-0201993]	1000 to 2000	1900	
COc1ccc(NC(=O)COc2ccc(-c3ccc(Cl)c(Cl)c3)cc2CN2CCN(C)CC2)cc1 [NUCC-0202019]	1000 to 2000	1300	
CN1CCN(Cc2cc(-c3ccc(Cl)c(Cl)c3)ccc2OCC(=O)NCCc2ccccc2)CC1 [NUCC-0201996]	1000 to 2000	1100	
